The source of these data is paper PMC4427492, “The Repellent DEET Potentiates Carbamate Effects via Insect Muscarinic Receptor Interactions: An Alternative Strategy to Control Insect Vector-Borne Diseases” (PLoS ONE, 2015).

Assay [1] concerns the target T1, human M1 muscarinic acetylcholine receptor (hM1 mAChR) (Homo sapiens, UniProt P11229).
T1 construct: gene CHRM1; membranes of CHO cells stably expressing human M1
T1 sequence (P11229 1-460): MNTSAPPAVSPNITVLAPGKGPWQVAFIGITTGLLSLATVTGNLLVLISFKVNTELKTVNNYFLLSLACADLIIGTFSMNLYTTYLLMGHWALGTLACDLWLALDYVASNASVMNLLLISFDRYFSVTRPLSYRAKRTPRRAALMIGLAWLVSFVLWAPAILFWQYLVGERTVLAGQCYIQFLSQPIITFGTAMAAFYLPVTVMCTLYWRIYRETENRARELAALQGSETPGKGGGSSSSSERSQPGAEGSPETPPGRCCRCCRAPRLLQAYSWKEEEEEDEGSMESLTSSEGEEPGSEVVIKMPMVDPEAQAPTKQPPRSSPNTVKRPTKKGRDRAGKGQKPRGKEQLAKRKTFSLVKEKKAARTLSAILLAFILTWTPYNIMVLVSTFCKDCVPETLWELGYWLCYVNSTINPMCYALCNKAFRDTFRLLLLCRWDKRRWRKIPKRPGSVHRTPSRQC
In words: [3H]NMS radioligand displacement; also antagonism of CCh-induced calcium mobilization. The format is binding. The text has this:
[3H]NMS radioligand displacement; also antagonism of CCh-induced calcium mobilization on human M1 muscarinic acetylcholine receptor (hM1 mAChR) | DEET displaced the [^3H]N-Methyl Scopolamine (NMS) binding from M1 and M3 mAChRs but only in the millimolar range

The target of assay [2] is T2, human M3 muscarinic acetylcholine receptor (hM3 mAChR) (Homo sapiens, UniProt P20309).
T2 construct: gene CHRM3; membranes of CHO cells stably expressing human M3
T2 sequence (P20309 whole entry): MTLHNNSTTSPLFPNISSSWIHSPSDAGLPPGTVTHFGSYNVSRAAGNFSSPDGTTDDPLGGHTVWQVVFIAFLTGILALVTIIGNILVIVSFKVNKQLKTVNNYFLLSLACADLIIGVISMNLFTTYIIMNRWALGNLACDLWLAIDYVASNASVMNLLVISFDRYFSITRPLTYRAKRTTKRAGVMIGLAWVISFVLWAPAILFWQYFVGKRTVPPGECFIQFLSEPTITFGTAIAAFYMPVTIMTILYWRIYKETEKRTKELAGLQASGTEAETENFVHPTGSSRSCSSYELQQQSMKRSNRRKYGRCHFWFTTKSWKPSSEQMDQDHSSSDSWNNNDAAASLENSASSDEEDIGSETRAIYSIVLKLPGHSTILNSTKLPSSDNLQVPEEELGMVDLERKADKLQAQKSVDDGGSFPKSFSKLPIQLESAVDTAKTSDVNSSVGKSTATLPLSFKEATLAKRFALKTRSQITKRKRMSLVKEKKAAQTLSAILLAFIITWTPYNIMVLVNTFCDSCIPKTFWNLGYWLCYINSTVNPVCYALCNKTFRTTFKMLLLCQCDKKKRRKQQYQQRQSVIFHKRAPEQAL
Described as above. The format is binding.

Assay [3] deals with acetylcholinesterase (AChE). Kind of assay: Ellman spectrophotometric AChE activity assay on DUM neuron suspension. The format is cell-based, Periplaneta americana.

Each structure is given as a SMILES string.

One may read the Ki as the equilibrium dissociation constant of an inhibitor or competing ligand from its target. What is called IC50 is the concentration at which inhibition is half-maximal. Low values mean greater potency in that assay, high ones weaker potency in that assay.

With `CCN(CC)C(=O)c1cccc(C)c1` [DEET, N,N-Diethyl-3-methylbenzamide], the Ki came out at 690 ± 190 µM in assay [1] and 370 ± 20 µM in assay [2].

Turning to `CNC(=O)Oc1ccccc1OC(C)C` [propoxur, 2-isopropoxyphenylmethylcarbamate], the IC50 in assay [3] was 0.02 µM.
